Columns and labels:
Assay type in all cases: in vivo, Danae racemosa L.
[1] = system: Alexandrian laurel seed; assay: In vitro germination of seeds in agar medium containing GA3
Description: Seeds were purchased (Gethsemane Garden and Landscape Services, Inc., Greensboro, N.C.) and disinfected in a 20% bleach solution plus 20 drops Tween-20 per liter for 20 minutes and then rinsed immediately 3 times with sterile purified water.
The disinfected seeds were subsequently transferred to test tubes containing agar medium and 10 ppm GA3. The medium pH was adjusted to 5.8 with 1N KOH or 1 N HCl. The culture medium was sterilized by autoclaving at 121° C. (106 kPa) for 20 minutes.
(§1) All cultures described herein were transferred onto fresh media every 4 weeks and incubated in a plant tissue culture grade growth chamber under a 16-h photoperiod and a photo flux density of 37.6±4.8 μmol s^−1m^−2 light per day provided by cool white fluorescent tubes at 23±0.1° C., unless otherwise noted.
The seeds were prepared according to Materials and Methods above.
The micropropagated plantlets were then potted in soil and transferred to a greenhouse.

[2] = system: Alexandrian laurel seedlings; assay: Culture of germinated seeds in BA-supplemented Woody Plant Medium
Description: All cultures described herein were transferred onto fresh media every 4 weeks and incubated in a plant tissue culture grade growth chamber under a 16-h photoperiod and a photo flux density of 37.6±4.8 μmol s^−1m^−2 light per day provided by cool white fluorescent tubes at 23±0.1° C., unless otherwise noted. At 10 weeks, a group of germinated seeds from Example 1 was removed from agar medium containing GA3 and transferred to a supplemented WPM culture further comprising BA (at 1.0, 2.0, or 3.0 mg/L, respectively 4.44, 8.88, or 13.32 μM).

[3] = system: Alexandrian laurel seedlings; assay: Culture of germinated seeds in TDZ-supplemented Woody Plant Medium
Description: as §1
At 10 weeks, a group of germinated seeds from Example 1 was removed from agar medium containing GA3 and transferred to a supplemented WPM culture further comprising TDZ (at 1.0, 2.0, or 3.0 mg/L, respectively 4.54, 9.08, or 13.62 μM).

## C=C1C[C@]23C[C@@]1(O)CC[C@H]2[C@@]12C=C[C@H](O)[C@@](C)(C(=O)O1)[C@H]2[C@@H]3C(=O)O [GA3, gibberellic acid]
[1]; agar medium containing GA3, at 10 weeks (FIG. 1)
  root and shoot growth of germinated seeds: a lot of root growth and little shoot growth
[1]; agar medium with 10 ppm GA3, about 10 weeks
  seed germination: a majority of the seeds had germinated

## c1ccc(CNc2ncnc3nc[nH]c23)cc1 [BA, 6-benzylamino purine]
[2]; early growth after the initial seed germination in the presence of BA
  seedling development: balanced seedling development by simultaneously promoting shoot growth and slowing down root growth
[2]; supplemented WPM with BA at 1.0, 2.0 or 3.0 mg/L, about 4 weeks (FIG. 2)
  shoot and root growth of young seedlings compared to Example 1A: more balanced shoot and root growth

## O=C(Nc1ccccc1)Nc1cnns1 [TDZ, [1-phenyl-3-(1,2,3-thidiazol-5-yl)urea]]
[3]; after 50 days of treatment in TDZ supplemented WPM
  appearance of root growth points: root growth points began to turn brown
[3]; early growth after the initial seed germination in the presence of TDZ
  shoots per seed: 5-10 shoots per seed
[3]; supplemented WPM with TDZ at 1.0, 2.0 or 3.0 mg/L, about 50 days (FIG. 3)
  shoot formation: multiple shoots from each seed

— patent US20170127674A1, “MICROPROPAGATION OF ALEXANDRIAN LAUREL (DANAE RACEMOSA L)” (North Carolina A&T State University, priority 2012, published 2017)
